Broadly, the melting point is the temperature of the solid-liquid transition. By boiling point is commonly meant the temperature at which the vapour pressure of the liquid equals the pressure above it.

Structures are written as SMILES.

This is an account of results in the OPERA property sets (Mansouri et al. 2018).

Settings in one data set: not given
As for `CCNc1nc(NC(C)(C)C)nc(SC)n1`, the log10 Koc (L/kg) amounted to 2.85, the log10 vapour pressure (mmHg) was -5.77, the melting point turned out to be 104 °C and the ready biodegradability entry is listed as “not readily biodegradable”.

Regarding `CCOC(=O)c1ccc(-c2ccc(C(=O)OCC)c(C(=O)OCC)c2)cc1C(=O)OCC`, the ready biodegradability result is reported as “readily biodegradable”.

As for `CCC(C)(C)CC(C)C`, the boiling point is 131 °C, the log10 vapour pressure (mmHg) stood at 1.13 and the melting point was -113 °C.

Turning to `CC(C)C(C)CCC(C)C1CCC2=C3CCC4CC(O)CCC4(C)C3CCC21C` (stereo not drawn), the melting point stood at 131 °C.

Take `O=C1Nc2ccccc2CCc2ccccc21`: the ready biodegradability result is recorded as “readily biodegradable”.

For the compound `CCSc1cccc(C)c1`, the boiling point worked out at 219 °C.

Regarding `Cc1c(O)cccc1Cl`, the boiling point was determined as 225 °C and the melting point was 86 °C.

Compound `Cc1ncsc1C` returned a boiling point of 158 °C and a melting point of 83.5 °C.

Take `CCCCCCCCCc1cccc(O)c1CCCCCCCCC`: the ready biodegradability entry was “not readily biodegradable”.

`Cc1cc(Cl)c(Cl)c(Cl)c1` displayed a boiling point of 246 °C and a melting point of 45.5 °C.

Regarding `CCCCOC(=O)c1ccccc1O`, the boiling point turned out to be 271 °C and the melting point was -5.9 °C.

`Cc1cc(-c2ccccc2)nnc1NCCN1CCOCC1` yielded a melting point of 122 °C.

Take `OCc1cc(Br)ccc1O`: the melting point was found to be 113 °C.

`O=C(O)c1cccc(Oc2ccccc2)c1` had a melting point of 150 °C.

Turning to `O=C(NCO)NCO`, the melting point was 126 °C.

As for `C=CCCCCCCCC`, the boiling point was 170 °C, the log10 vapour pressure (mmHg) was 0.223 and the melting point was -66.3 °C.

`CCC(C)C(C)C(C)CC` (stereo not drawn) came in with a boiling point of 162 °C.

For `O=Cc1cccc(Oc2ccccc2)c1`, the ready biodegradability result is “not readily biodegradable”.

`O=[N+]([O-])c1ccccc1C(F)(F)F`: the boiling point was 217 °C and the melting point is 32.5 °C.

Regarding `O=C(O)CCCCC(=O)O`, the boiling point amounted to 338 °C, the log10 vapour pressure (mmHg) is -6.5, the melting point was found to be 153 °C and the ready biodegradability result is “readily biodegradable”.

With `CC(=O)C=CC1=C(C)CCCC1(C)C`, the log10 vapour pressure (mmHg) was -1.27.

`NNC(N)=O` gave a melting point of 96 °C.

With `CCCCCCC(=O)Cl`, the boiling point came to 145 °C, the log10 vapour pressure (mmHg) was -0.35 and the melting point is -83.8 °C.

On to `O=C(O)[C@H]1CCCC[C@H]1C(=O)OC(=O)[C@H]1CCCC[C@H]1C(=O)O`, for which the ready biodegradability entry is on record as “not readily biodegradable”.

In the case of `c1ccc2c(c1)Sc1ccccc1N2CC1CN2CCC1CC2` (stereo not drawn), the melting point is 130 °C.

Regarding `Cc1cccc(O)c1O`, the boiling point is 241 °C and the melting point worked out at 68 °C.

On to `c1ccnnc1`, for which the boiling point is 208 °C and the melting point was -8 °C.

Compound `CCOc1ccc(C(=O)OCCN(CC)CC)cc1` yielded a melting point of 173 °C.

Compound `Cc1cc(=O)n(-c2ccccc2)[nH]1` showed a melting point of 128 °C.

Turning to `O=C(Br)CBr`, the boiling point was determined as 148 °C.

Compound `OB(O)c1ccccc1` had a melting point of 219 °C.

For the compound `CC1(C)OC(=O)CC(=O)O1`, the melting point was 94 °C.

In turn, `CCCCCCCCCCCCOC(=O)c1cc(O)c(O)c(O)c1` displayed a melting point of 96.5 °C.

The compound `Cc1ccc(CCC=O)cc1` yielded a boiling point of 223 °C.

`CCCCCCCCC(=O)OC` displayed a boiling point of 214 °C.

In the case of `O=C(O)CCSCCC(=O)O`, the melting point was 129 °C and the ready biodegradability entry is recorded as “readily biodegradable”.

In turn, `c1ccc2c(c1)OCO2` came in with a boiling point of 172 °C.

`Cc1c([N+](=O)[O-])cc(C(C)C)c(O)c1[N+](=O)[O-]` yielded a melting point of 55.5 °C.

Consider `O=C1c2ccccc2C(=O)C1(CN1CCOCC1)c1ccccc1`, for which the melting point came to 88 °C.

`CCCCCCCC/C=C\CCCCCCCC(=O)OCC(O)CO` (stereo not drawn): the melting point turned out to be 35 °C and the ready biodegradability entry is “readily biodegradable”.

As for `CCC(C)(CC)c1ccccc1`, the boiling point was 205 °C.

Compound `Nc1cc(Cl)ccc1O` yielded a melting point of 140 °C.

As for `CC[C@@H]1C(=O)OC[C@@H]1Cc1cncn1C`, the melting point turned out to be 34 °C.

In turn, `Cc1ccc(N)c(Cl)c1` gave a boiling point of 220 °C and a melting point of 7 °C.

`CCCCn1c2ccccc2c2ccccc21` yielded a melting point of 58 °C.

Turning to `Fc1ccccc1I`, the boiling point came to 189 °C and the melting point is -41.5 °C.

Consider `O=Cc1ccc(Br)o1`, for which the boiling point came out at 201 °C.

As to `CC1(C)CNC(=NN=C(/C=C/c2ccc(C(F)(F)F)cc2)/C=C/c2ccc(C(F)(F)F)cc2)NC1`, the log10 Koc (L/kg) came out at 5.86, the log10 vapour pressure (mmHg) is -7.69 and the melting point amounted to 188 °C.

`O=S(O)c1ccc(Cl)cc1` came in with a melting point of 99 °C.

In the case of `O=[N+]([O-])CBr`, the boiling point was found to be 149 °C and the log10 vapour pressure (mmHg) turned out to be 0.491.

Consider `Clc1ccc(-c2ccc(Cl)c(Cl)c2Cl)cc1Cl`, for which the log10 Koa came to 10 and the log10 vapour pressure (mmHg) is -5.18.

Turning to `CCCCCCCCCCCCCCCCCC`, the boiling point was found to be 316 °C, the log10 biodegradation half-life (days) came out at 1.32, the log10 vapour pressure (mmHg) was -3.47 and the melting point came out at 28.2 °C. For the same compound, the ready biodegradability result is on record as “readily biodegradable”.

Regarding `O=C(CS)Nc1ccc2ccccc2c1`, the melting point came to 112 °C.

Consider `FC(F)(F)CCCl`, for which the boiling point was 45.1 °C and the melting point is -106 °C.

On to `Cc1ccc(N(C)C)cc1`, for which the boiling point is 211 °C and the log10 vapour pressure (mmHg) is -0.75.

Regarding `CCCCCCCCCC(=O)CCCCCCCCC`, the melting point came to 65.5 °C.

Take `O=C([O-])C(F)(F)C(F)F.[Na+]`: the log10 vapour pressure (mmHg) is -3.52.

On to `C1=CCC2CC2C1` (stereo not drawn), for which the boiling point was found to be 125 °C and the log10 vapour pressure (mmHg) was 1.36.

With `NNc1c(Cl)cc(Cl)cc1Cl`, the ready biodegradability result is on record as “not readily biodegradable”.

The compound `O=C1C=C(N2CC2)C(=O)C(N2CC2)=C1N1CC1` yielded a melting point of 163 °C.

Regarding `Cc1cc(C)cc(C)c1`, the boiling point stood at 165 °C, the log10 Henry constant (atm·m³/mol) is -2.06, the log10 Koc (L/kg) is 2.82 and the log10 biodegradation half-life (days) was 0.477. The log10 vapour pressure (mmHg) came to 0.395, the melting point was -44.7 °C and the ready biodegradability result is listed as “not readily biodegradable”.

As to `Cc1cc(C)cc([N+](=O)[O-])c1`, the boiling point was determined as 274 °C and the melting point turned out to be 75 °C.

The compound `CCCCCCC(=O)OCC(C)C` yielded a boiling point of 208 °C.

Turning to `O=C(NC(=O)c1c(F)cccc1F)Nc1ccc(Cl)c(Oc2ncc(C(F)(F)F)cc2Cl)c1`, the log10 vapour pressure (mmHg) is -12.

Take `CC(C=O)c1ccccc1` (stereo not drawn): the boiling point turned out to be 204 °C and the log10 vapour pressure (mmHg) was -0.569.

With `FC=C(F)F`, the boiling point is -51 °C.

`CC(C)CN(C)C` registered a boiling point of 80.5 °C.

Turning to `CC(=O)O[C@@]12CO[C@@H]1C[C@H](O)[C@@]1(C)C(=O)[C@H](O)C3=C(C)[C@@H](OC(=O)[C@H](O)[C@@H](NC(=O)OC(C)(C)C)c4ccccc4)C[C@@](O)([C@@H](OC(=O)c4ccccc4)[C@H]21)C3(C)C`, the melting point came to 232 °C.

Take `CC1CCC(C)C(C)C1C` (stereo not drawn): the log10 vapour pressure (mmHg) is 0.117 and the melting point is -75 °C.

As to `CCOCC`, the boiling point was determined as 34.6 °C, the log10 Henry constant (atm·m³/mol) was -2.91, the log10 Koa came to 2.19 and the log10 vapour pressure (mmHg) was 2.73. For the same compound, the melting point was -116 °C and the ready biodegradability entry is on record as “not readily biodegradable”.

As for `COC(=O)NC(=S)Nc1ccccc1NC(=S)NC(=O)OC`, the log10 Koc (L/kg) is 3.25 and the log10 vapour pressure (mmHg) was -7.15.

Regarding `ClC=CCl`, the boiling point came out at 55 °C, the log10 Henry constant (atm·m³/mol) was -2.39, the log10 vapour pressure (mmHg) stood at 2.3 and the melting point is -57 °C. Further, the ready biodegradability result is listed as “not readily biodegradable”.

Take `C1=C\CC/C=C\CC/1`: the ready biodegradability entry is “not readily biodegradable”.

`N#Cc1ccc(Cl)c([N+](=O)[O-])c1` came in with a melting point of 99 °C.

Still in this data set, the particulars now being: fish.
`C=CCCCCCCCC`: the log10 biotransformation half-life (days) was 0.65.

In turn, `Clc1ccc(-c2ccc(Cl)c(Cl)c2Cl)cc1Cl` showed a log10 biotransformation half-life (days) of 2.06.

`Cc1cc(C)cc(C)c1` had a log10 BCF of 2.27 and a log10 biotransformation half-life (days) of 0.4.

Turning to `CCOCC`, the log10 BCF was 0.73 and the log10 biotransformation half-life (days) is -0.7.
